Experimental data as given in ChEMBL document CHEMBL1133868, “Synthesis of P(1)-Citronellyl-P(2)-alpha-D-pyranosyl pyrophosphates as potential substrates for the E. coli undecaprenyl-pyrophosphoryl-N-acetylglucoseaminyl transferase MurG” (Bioorg Med Chem Lett, 2001).
Activity calls are given as the source filed them. No cut-off for these calls is given here.

Test system: Bacillus subtilis
Experiment: Tested for antimicrobial activity against Bacillus Subtilis; Not active
Assay type: functional, organism-based

| SMILES | Activity |
| --- | --- |
| CC(=O)NC1C(OP(=O)(O)OP(=O)(O)OCC[C@H](C)CCC=C(C)C)OC(CO)C(O)C1O[C@H](C)C(=O)O (some centres not stated) | inactive |
| CC(C)=CCC[C@@H](C)CCOP(=O)(O)OP(=O)(O)O[C@H]1O[C@@H](CO)[C@@H](O)[C@H](O)[C@@H]1O | inactive |
